In general, melting point refers to the temperature of the solid-liquid transition.

The structures appear in SMILES notation. Some results are limits rather than exact numbers.

`N#Cc1cc2[nH]cc(C(=O)O)c2cc1-c1ccc(C2(CO)CC2)cc1` registered a melting point of 271 to 272 °C.
Then `Cc1c(C)c2c(c(C)c1OCc1ccccc1)CC(CCN1C(=O)c3ccccc3C1=O)O2` (configuration not stated), with 108 to 110 °C; and `O=C(c1ccc(Cl)cc1)C1(Oc2ccc(Cl)cc2)CC1`, with 69 to 71 °C.
Then `Cc1cc(F)c(N)cc1-n1cc(C(=O)O)c(=O)c2cc(F)c(N)c(C)c21`, with more than 240 °C; and `COc1ccccc1SC1CC(=O)N1` (configuration not stated), with 103 to 105 °C; and `Cc1ccc(CC2CCN(C(=O)C(=O)Nc3ccc4c(c3)OCC(=O)N4)CC2)cc1`, with 228 to 231 °C.
Then `CC1(C)Cc2cccc(OCCNCc3cncc(C4=CCCC4)c3)c2O1`, with 141 °C.
Consider `NC(=O)c1sccc1S`, for which the melting point is 116 to 120 °C.
Take `Cc1ccc(S(=O)(=O)N2CCC[C@H](CBr)c3ccccc32)cc1`: the melting point was in the range of 110 to 111 °C.
The molecule `O=Cc1ccc(-c2ncn(-c3ccc(OC(F)(F)F)cc3)n2)cc1` displayed a melting point of 137 to 140 °C.
The figure for `O=C(O)CS(=O)(=O)c1ccc2c(-c3ccccc3F)noc2c1Cl` is 204 °C.
Then `CCCNC1=NS(=O)(=O)c2cc(C(F)(F)F)ccc2N1`, with 241 to 243 °C.
The molecule `Cc1oc(-c2ccc(Cl)cc2)nc1COc1cccc(/C=C/C(C)N(O)C(N)=O)c1` (configuration not stated) gave a melting point of 98 to 99 °C.
The molecule `COCC1CC2CCC13CN(CC1CC1)CCC31c3cccc(O)c3OC21` (configuration not stated) yielded a melting point of 128 to 129 °C.
Then `Nc1ccc(CCc2n[nH]c3c2c(=O)n(-c2ccccc2)c2ncccc32)cc1`, with more than 310 °C; and `COc1cc2ccc3c4cc(OC)c(OC)cc4ncc3c2cc1OC`, with 122 to 124 °C; and `COc1ccc2c(c1)c(-c1cc3nccnc3[nH]1)cn2Cc1ccccc1`, with 240 to 244 °C.
Then `COC(=O)c1oc(C(C)(C)C)cc1NC(=O)Nc1cccc(Cl)c1Cl`, with 195 to 197 °C; and `O=S(=O)(NCCCl)c1ccccc1`, with 58 to 62 °C.
Then `CCC(=O)COc1nn(CC(=O)CC)c(-c2ccc(F)cc2)c1-c1ccc(S(C)(=O)=O)cc1`, with 56 to 58 °C; and `CC1(C(=O)N2C[C@H](S(=O)(=O)c3ccc(OCC(F)(F)F)cc3C(F)(F)F)C[C@H]2C(=O)NC2(C#N)CC2)CC1`, with 126 to 127 °C.
For the molecule `CC1CN(c2ccc(Cl)c(Cl)c2)N=C1NC=O` (configuration not stated), the melting point was in the range of 150 to 152 °C.
`CC(=O)N(CC(C)C)C1NC(=O)N(c2ccc(C(=O)O)cc2)C(=O)N1` came in with a melting point of 191 to 193 °C.
Then `CCCCNC(=O)CC(=O)Nc1ccc(Br)cc1C`, with 123 to 125 °C.
Regarding `CCNS(=O)(=O)Oc1cc(C(C)(C)C)c(SC2=C(O)CC(CCc3ccc(N)cc3)(CCc3ccc(N)cc3)OC2=O)cc1C`, the melting point was 194 °C.
The figure for `CCCCCCCCCCCCCCCCCCOc1cc(N(CC(=O)OC)CC(=O)OC)cc([N+](=O)[O-])c1` is 68 to 74 °C; for `CCOC(=O)C1(Nc2nc(-c3ccc(Br)cc3)cs2)CC1` it is 152 to 154 °C.
`CC(NC(=O)c1ccc([N+](=O)[O-])cc1)C(=O)O` (configuration not stated): the melting point is 199 to 200 °C.
As for `COC(=O)C(Cc1cccc(-c2nc(=O)c3ccccc3s2)c1)NC(=O)c1ccccc1` (configuration not stated), the melting point was 131 °C.
Then `CCOC(=O)c1cnc2sc3c(n12)CCCCCC3`, with 79 to 81 °C; and `COc1cc2ncn(CCO)c(=O)c2cc1OC`, with 130 °C; and `CCOC(=O)C1CSC(COc2ccc(OC)cc2)N1C(=O)CCl` (configuration not stated), with 69 to 71 °C.
`Nc1sc(/C=C/CC2CCCCC2)c(CN(C2CCCCC2)C2CCCCC2)c1C(=O)c1ccc(Cl)cc1` returned a melting point of 147 to 150 °C.
Then `Fc1ccc(F)c(C=C2CCNc3nc(Br)ccc32)c1`, with 178 to 179 °C.
The figure for `O=C(Nc1n[nH]c(=S)s1)N[C@@H](Cc1ccc(F)cc1)C(=O)N1CCN(c2ccccn2)CC1` is 240 to 242 °C; for `COc1ccc(-c2ccc3ccc(N)nc3n2)cc1` it is 220 °C; for `CC=Cc1ccc2c(c1)C(=O)N(c1ccc(C(C)C(=O)OC(C)(C)C)cc1)C2` (configuration not stated) it is 125 to 130 °C.
Regarding `CC(=Cc1ccc(C(C)(C)C)cc1)C(=O)NC(C)c1ccc(NS(C)(=O)=O)c(F)c1` (configuration not stated), the melting point is 92 to 94 °C.
Then `Oc1cccc(-c2nc3n(n2)CCc2ccccc2-3)c1`, with 201 to 202 °C; and `COC(=O)c1cnc(N)cn1`, with 229 to 231 °C.
For `COc1cc(Nc2c(C#N)cnc3cc(-c4ccc(CCN5CCOCC5)cc4)c(OC)cc23)c(Cl)cc1Cl`, the melting point fell in the range of 215 to 217 °C.
For the molecule `COc1cc2nc(N3CCN(C#N)CC3)nc(N)c2cc1OC`, the melting point turned out to be 215 °C.
The figure for `COc1ccc(CNc2nc(Cl)ncc2C(=O)c2ccccn2)cc1Cl` is 117 to 119 °C.
The figure for `COCCN1CCN(CCc2ccc(Nc3ncc4c(n3)-c3ccccc3[C@H](c3ccc(F)cc3)C4)cc2)CC1` is 195 to 198 °C; for `C[C@@H]1N=C(c2ccccc2Cl)c2c(ccc(N)c2Br)N(C)C1=O` it is 243 °C.
Take `O=C(Nc1n[nH]c(=S)s1)NC(Cc1ccccc1)C(=O)NCc1ccncc1` (configuration not stated): the melting point lay within 208 to 211 °C.
The figure for `COc1cccc(C2=C(C(=O)c3ccc(O)cc3)c3ccc(OC)cc3CC2)c1` is 197 to 198 °C; for `O=C(Nc1ccc(F)cc1)c1ccccc1C(c1ccc(O)cc1)c1ccc(O)cc1` it is 122 to 124 °C.
The figure for `Nc1ccc(N)c(I)c1` is 95 to 99 °C; for `Cc1ccc(N2CCN(C(=O)NCCN(C)C)CC2)cc1` it is 85 to 88 °C; for `COc1ccc(C2CCN(C(=O)Nc3ccc4cc(CN5CCCC5)cnc4c3)CC2)cc1` it is 241 to 243 °C.
Then `CC(C)(C)OC(=O)NCc1ccccc1N`, with 94 to 95 °C.
`COc1cc(-c2ccc3c(c2)CC[C@H]2N(C)C(=O)CC[C@]32C)ccc1O`: the melting point is 247 to 250 °C.
Then `OC1CSC(Sc2ccccc2)C(O)C1O` (configuration not stated), with 150 to 151 °C; and `C[C@H](NC(=O)OC(C)(C)C)C(=O)Oc1c[nH]c2ccccc12`, with 158 °C.
Consider `OC1(NC2=NCCS2)C(=Cc2ccccc2)CSCC1=Cc1ccccc1` (configuration not stated), for which the melting point was in the range of 171 to 172 °C.
Then `COc1cc(O[C@@H](C)C(=O)O)c(Cl)cc1Cl`, with 114 to 115 °C.
Then `CCOC(=O)C(=O)Nc1cc2[nH]c(=O)c(=O)n(C3CCCCC3)c2cc1[N+](=O)[O-]`, with 260 °C.
The figure for `CCOC(=O)Nc1nc(-c2ccccc2)c(-c2nc3ccccc3c(=O)n2-c2ccc(OC)cc2)s1` is 256 to 257 °C.
For the molecule `Cc1cc(C)cc(Sc2c(C)c[nH]c(=O)c2N)c1`, the melting point was 208 to 210 °C.
For `O=C(Nc1ccc(F)cc1)c1ccccc1`, the melting point lay in the range of 167 to 168 °C.
The figure for `Cc1nc2c3c(ccc2n1C)C(=O)CC(c1ccccc1)O3` (configuration not stated) is 201 to 202 °C; for `CCc1nc2c(cnn2CC)c(NC2CCOCC2)c1CNC(=O)c1cccc(C(=O)NCc2ccc(OC)c(-c3cccc(CN4CC(C)NC(C)C4)c3)c2)c1` (configuration not stated) it is 127 to 129 °C.
`Cc1c(CCNC(=S)Nc2nccs2)cccc1C(F)(F)F` showed a melting point of 158 to 159 °C.
`COc1cc(C)c([N+](=O)[O-])cc1C(=O)NCC1CCCO1` (configuration not stated) showed a melting point of 178 to 180 °C.
Then `CC(C)N(CCCCO)c1cnc(-c2ccccc2)c(-c2ccccc2)n1`, with 102 to 103 °C; and `CC(=O)Nc1ccc(F)c(F)c1`, with 127 to 128 °C.
Consider `COc1ccc(C(=O)Nc2c(Cl)cncc2Cl)c2c1OC(C)C2C(=O)C1NCCc2ccccc21` (configuration not stated), for which the melting point is 211 to 213 °C.
Then `COc1ccc(C(=O)Nc2c(Cl)cncc2Cl)cc1OC1C=CCC1` (configuration not stated), with 177 to 178 °C; and `O=C(O)CCC(=NO)c1ccc(-c2ccc(F)cc2)cc1`, with 152 to 153 °C.
On to `COc1cc(C(=O)Nc2nn(-c3ccccc3)cc2C=O)ccc1OCc1nc(-c2ccccc2)oc1C`, for which the melting point lay within 234 to 235 °C.
The figure for `O=C(Nc1cccc(CN2C(=O)[C@H]3CCC[C@H]3N(C(=O)CN3C(=O)c4ccccc4C3=O)c3ccccc32)c1)OCc1ccccc1` (relative stereo) is 224 to 225 °C; for `COc1cccc(C2C=C(C)NC(CN3C(=O)c4ccccc4C3=O)=C2)c1[N+](=O)[O-]` (configuration not stated) it is 98 °C.
Turning to `CCOC(=O)[C@@H](O)[C@@H]1OC(=O)c2ccc(OC)cc21`, the melting point was in the range of 121 to 122 °C.
Then `CCCc1cc(Cl)c2oc(Cc3ccc(OC)cc3)c(C)c2c1OC(=O)OCC`, with 99 to 100 °C.
Then `O=C(O)CNC(COCc1cc(C(F)(F)F)cc(C(F)(F)F)c1)C(c1ccccc1)c1ccccc1` (configuration not stated), with 116 to 119 °C.
`CC(=O)OC1CSC(Oc2cncc(F)c2)C(OC(C)=O)C1OC(C)=O` (configuration not stated) yielded a melting point of 143 °C.
Then `O=C(c1ccccc1)C(O)c1ccc(F)cc1` (configuration not stated), with 108 to 109 °C; and `CC(C)c1cc(S(=O)(=O)c2c(Br)cc(CC(N)C(=O)O)cc2Br)ccc1O` (configuration not stated), with 210 to 217 °C; and `COc1ccccc1CN1CCC(CCC(=O)c2ccc(N3CCCC3)cc2)CC1`, with 89 to 91 °C.
The figure for `CCOC(=O)NC(=O)NC(=NC(=O)Nc1ccc(Cl)cc1)OC` is 140 to 142 °C; for `O=C(O)C1(c2ccccc2)CCCCC1` it is 118 to 121 °C; for `O=C(CSc1ccc(Cl)cc1C(=O)O)c1ccccc1` it is 154 to 156 °C.
The figure for `COc1cc2c(cc1OC)[C@@H]1c3ccc(C)cc3C(=O)N(Cc3ccccc3)[C@H]1CC2` (relative stereo) is 154 to 157 °C; for `Cn1c(=O)cnn(-c2cc(Cl)c(C(C#N)c3ccc(Cl)cc3)c(Cl)c2)c1=O` (configuration not stated) it is 160 °C; for `CN1C(=O)Cc2ccc(F)cc21` it is 100 to 101 °C.
Consider `CC(C)c1ncc(CN2C(=O)C3(COc4cc5c(cc43)OCO5)c3cccc(C(F)(F)F)c32)s1` (configuration not stated), for which the melting point lay in the range of 101 to 103 °C.

These data come from a melting point compilation (Tetko et al.; mined from patent text by program, amines drawn as free bases though some values may be those of a salt).
